Here are results for 88 compounds from a melting point compilation (Tetko et al.; mined from patent text by program, amines drawn as free bases though some values may be those of a salt).

The melting point is the temperature of the solid-liquid transition.

Bounds are passed on as bounds.

With `CCOC(=O)Cc1c(C(=O)OCC)c(C)c(C(=O)OCC)n1CC`, the melting point lay within 142 to 145 °C.
For `CCOC(=O)N1CCC(Nc2nc3cccnc3n2Cc2ccc(CO)o2)CC1` the value was 148 °C.
The value for `COC(=N)Nc1nc(Cl)cc(Cl)n1` was 178 °C.
In turn, `COc1ccc2cc(C(=O)CNC(=O)c3ccccc3)ccc2c1` gave a melting point of 172 to 174 °C.
Compound `CC1(C)Cc2c(Cl)cccc2C=[N+]1[O-]` came in with a melting point of 104 to 106 °C.
Turning to `CC(C)(C)c1nc(N)n(-c2c(Cl)cc(C(F)(F)F)cc2Cl)n1`, the melting point was in the range of 208 to 212 °C.
Compound `COC(=O)c1cc2cc(OC(F)F)ccc2nc1C(=O)OC` came in with a melting point of 84 to 85 °C.
On to `CCOCOC1(C(=O)COC(C)=O)C(C)CC2C3CC(C)C4=CC(=O)C=CC4(C)C3C(O)CC21C` (stereo not drawn), for which the melting point lay within 137 to 139 °C.
The compound `COc1ccc(CCC2COC(Cn3ccnc3)(c3ccc(Cl)cc3Cl)O2)cc1` (stereo not drawn) yielded a melting point of 131 °C.
The value for `Nc1c(OCCCl)cccc1[N+](=O)[O-]` was 71 to 73 °C; that for `CCCCCCCCCCCCSCCCN(CCO)CCO` was 53 to 54 °C.
For the compound `Cc1ncc2c(n1)-c1ccccc1N(C(=O)c1ccc([N+](=O)[O-])cc1)CC2`, the melting point lay in the range of 211 to 212 °C.
Compound `C#CCOc1cc(C)nc(-c2cccc(CCC)n2)n1` gave a melting point of 92.5 °C.
The value for `O=C(CC(F)(F)F)N[C@H]1CC[C@H](CCN2CCN(c3nccc4c3CCO4)CC2)CC1` was 196 °C; that for `O=C1CCC(c2cccc(O)c2)N1Cc1ccncc1` (stereo not drawn) was 148 to 150 °C; that for `COC(=O)CC(c1ccc(F)cc1)C(C(=O)OC)C(=O)OC` (stereo not drawn) was 75 to 76 °C.
As for `Nc1cccc(C(=O)NCCCn2ccnc2)c1`, the melting point lay within 88 to 90 °C.
For `CCN1CCC[C@H]1C(N)=O`, the melting point was in the range of 107 to 108 °C.
Consider `CCCCCCCCc1ccc(CCC(CO)(CO)NC(C)=O)s1`, for which the melting point lay in the range of 58 to 60 °C.
For `COc1cccc(CN2CCCCC2C(=O)O)c1` (stereo not drawn) the value was 186 to 187 °C; for `COc1ccc(CNC(=O)c2cc3c(=O)n(CCC(=O)c4ccccc4)c(=O)n(C)c3s2)cc1`, 208 to 211 °C.
For `Cc1ccc(S(=O)(=O)NC(C)(C)C)s1` the value was 89 °C; for `CC(=O)C(C)(CO)CO`, 60 °C.
Regarding `CCOC(=O)C(C)c1ccc(-c2cn3ccccc3n2)cc1` (stereo not drawn), the melting point was in the range of 110 to 112 °C.
Compound `CCN1CCCC1CNC(=O)c1cccc(N(C2CN(C(c3ccc(Cl)cc3)c3ccc(Cl)cc3)C2)S(C)(=O)=O)c1` (single isomer, unassigned; (+)) showed a melting point of 122 °C.
In turn, `CCOCN1N=NC(=S)C1C` (stereo not drawn) yielded a melting point of 137 to 138 °C.
Turning to `CCCCc1nccc2ccc(C(=O)N[C@@H](Cc3cc(F)cc(F)c3)[C@H](O)CNCc3cccc(CC)c3)cc12`, the melting point is 109 to 110 °C.
The compound `CC(C)(C)[Si](C)(C)Oc1ccc(NC(=O)CCl)cc1` yielded a melting point of 107 to 108 °C.
Consider `N#Cc1ccc([C@@H]2[C@@H]3C(=O)N(Cc4ccccc4)C(=O)[C@@H]3[C@H]3CCCN32)cc1` (racemic), for which the melting point is 191 to 193 °C.
Regarding `COc1cc(CON=C(CCC(=O)O)c2ccccc2)ccc1OCc1nc(-c2ccccc2)oc1C`, the melting point was in the range of 134 to 135 °C.
On to `COc1ccc(Nc2cc(-c3ccccc3)nc(NC3CCC(O)CC3)n2)cc1Cl` (stereo not drawn), for which the melting point fell in the range of 293 to 295 °C.
The value for `COC(=O)/C=C\C(=O)Nc1ccc2c(=O)n3c(nc2c1)C(=Cc1ccccc1)CC3` was 233 to 235 °C; that for `Cn1c(=O)c2c(nc(Cl)n2Cc2ccc(F)cc2)n(C)c1=O` was 183 to 184 °C.
In turn, `CCCCCC(CC(=O)Nc1cc(C(=O)O)ccc1C(C)(C)C)c1ccc(C)cc1OC` (stereo not drawn) registered a melting point of 164 to 165 °C.
For `CCOC(=O)C1=C(COCC(N)=S)NC(C)=C(C(=O)OC)C1c1ccccc1Cl` (stereo not drawn), the melting point fell in the range of 149 to 150 °C.
For `CCOCc1nc2c(N)nc(C)cc2n1CCCCNC(=O)N1CCOCC1` the value was 156 to 160 °C; for `CCCn1nc2c(N)nc3ccccc3c2c1CCCc1cc(C)no1`, 183 to 184 °C.
For `CNN1c2cc(Cl)cc(Cl)c2[C@@H](C(=O)Nc2ccccc2)C[C@@H]1C(=O)O` (relative stereo) the value was 139 to 140 °C.
`O=C(O)c1ccc2c(c1)C(=O)NC(C(Cl)(Cl)Cl)N2` (stereo not drawn) showed a melting point above 280 °C.
In the case of `COc1cc(OCC2CCCO2)ccc1C=O` (stereo not drawn), the melting point amounted to 73.3 °C.
As for `CC(C)c1nc(CO)n(Cc2ccccc2[N+](=O)[O-])c1Sc1cc(Cl)cc(Cl)c1`, the melting point is 160 to 166 °C.
Turning to `CCCC1N(C)c2cccc3cccc(c23)N1C`, the melting point was in the range of 70 to 71 °C.
For `Cc1nc2c(N)nc3ccccc3c2o1` the value was 195 to 197 °C.
`CCCS(=O)(=O)Nc1cc(OC[C@@H](O)CNC2CCN(c3ccc(C(=O)OCC)cc3)CC2)ccc1O` had a melting point of 63 to 65 °C.
The compound `CC1(C)CC2(CC(C)(C)c3ccc(Oc4ccc([N+](=O)[O-])cc4)cc32)c2cc(Oc3ccc([N+](=O)[O-])cc3)ccc21` displayed a melting point of 200 to 202 °C.
Compound `CC(=O)Oc1c(C)cc(OCC(=O)c2ccc(C(C)C)cc2)c2ccccc12` displayed a melting point of 105 to 106 °C.
For `N#CN1CCC2(CC1)C(=O)c1cc(Cl)ccc1Sc1ccccc12`, the melting point is 142 °C.
The value for `N#Cc1ccc(-c2cn(-c3ccc(C#N)cc3)c(SCC(O)CO)n2)cc1` (stereo not drawn) was 190 to 195 °C; that for `COc1ccc(N2CCN(C3CCN(Cc4ccccc4)CC3)C2=O)cc1` was 144 to 147 °C.
The compound `O=C1c2ccccc2C(=O)c2sc(-c3ccc(F)cc3F)nc21` gave a melting point above 260 °C.
The compound `COc1ccc2c(c1OC)CCCC2=O` yielded a melting point of 103 to 104 °C.
In the case of `O=C1NCc2c(Oc3ccccc3)cccc2N1Cc1ccccc1`, the melting point fell in the range of 171 to 173 °C.
As to `COc1ccc(OCc2ccccc2)c2[nH]c(C)c(C)c12`, the melting point was 76 °C.
`CC(=NO)C(C)(C)NCCCNC(C)(C)C(COCC(O)Cn1ccnc1[N+](=O)[O-])=NO` (stereo not drawn) came in with a melting point of 72 to 73 °C.
`Cc1cc(-c2ccc(Cl)c(Cl)c2)nc(-n2cnc(-c3cccc(S(N)(=O)=O)c3)c2)n1`: the melting point turned out to be 210 °C.
Take `OCc1cccc2c1SC(c1ccccc1)=CC2`: the melting point fell in the range of 120 to 122 °C.
For the compound `O=C(Nc1ccc2cc(CN3CCCCCC3)cnc2c1)c1ccc(-c2ccc(F)cc2)cc1`, the melting point came out at 202 °C.
Turning to `CCn1nnn(-c2cc(O)c(Cl)cc2Cl)c1=O`, the melting point is 149 to 150 °C.
For `NS(=O)(=O)c1ccc(-c2cc3c(cc2-c2ccc(F)cc2)OCO3)cc1` the value was 191 to 192 °C; for `COc1cc2c(Nc3ccc(Oc4ccccc4OC)cc3)c(C#N)cnc2cc1F`, 146 to 150 °C.
Consider `CCCc1ccc(-n2nc(Cl)cc2-c2ccc(S(C)(=O)=O)cc2)cc1[N+](=O)[O-]`, for which the melting point is 42 to 46 °C.
Regarding `OC(CCl)COc1ccccc1OCC(O)CCl` (stereo not drawn), the melting point was in the range of 64 to 66 °C.
On to `O=C(NO)c1ccc(CNC(=O)c2[nH]c(-c3cccs3)cc2-c2ccc(F)cc2)nc1`, for which the melting point is 151 to 152 °C.
For `O=C1CSC(=S)N1c1ccc(Cl)cc1` the value was 124 to 126 °C; for `CCOC(=O)C(CC(N)=O)(C(=O)OCC)n1cccc1`, 94 to 95 °C.
For `O=C(O)C1CCc2cc(C3CCCCCC3)c(Cl)cc21` (stereo not drawn), the melting point was in the range of 138 to 140 °C.
`N#Cc1c(-c2ccc(Cl)cc2)c(-c2ccc(Cl)cc2)nn(CCO)c1=O` came in with a melting point of 122 to 123 °C.
`CCCC(CCC)C(=O)N[C@@H](Cc1ccccc1)C(=O)N[C@H]1CCOC1=O` registered a melting point of 203 to 205 °C.
In the case of `CCCS(=O)(=O)c1cc([C@H]2CC[C@H](c3cc(OC)c(OC)c(OC)c3)O2)cc(OC)c1OCCSc1ccc(N(C)C)cc1` (relative stereo), the melting point was in the range of 113 to 115 °C.
Consider `COCCOc1cc2ncnc(NC3=CC(=O)C(Br)=CC3=O)c2cc1OC`, for which the melting point fell in the range of 200 to 210 °C.
With `COc1cc2c(c(Cl)c1Cl)C(=O)C(c1ccccc1)(C1CCCC1)C2` (stereo not drawn), the melting point was in the range of 105 to 108 °C.
As to `C=CCC(=CC(N)C(=O)O)CP(=O)(O)O` (stereo not drawn), the melting point fell in the range of 154 to 157 °C.
The value for `Cc1c(NC(=O)N2CCC(c3ccc(Cl)cc3)CC2)ccc2cc(CN3CCCC3)cnc12` was 203 to 205 °C; that for `C#Cc1ccc2c(c1)CC1SC(c3ccccc3)=NC21O` (stereo not drawn) was 118 °C; that for `[N-]=[N+]=NC1(c2ccccc2Cl)C(=O)Nc2ccc(Cl)cc21` (stereo not drawn) was 178 °C.
The compound `O=[N+]([O-])c1ccc(CSc2ccc(Cl)cc2)cc1` yielded a melting point of 66 to 68 °C.
Compound `O=C(O)c1cccc(N(C(c2ccccc2)c2ccccc2)n2cc(C3c4ccccc4C=Cc4ccccc43)c(=S)[nH]c2=O)c1` yielded a melting point of 210 °C.
Compound `Nc1ncc(-c2ccc(=O)[nH]n2)c(-c2ccc(Cl)c(Cl)c2)n1` yielded a melting point of 300 °C.
As to `Cn1cc(-c2cccc(N3Cc4cc(C(C)(C)C)ccc4C3=O)c2CO)cc(Nc2ccc(C3CNC3)cn2)c1=O`, the melting point lay in the range of 185 to 186 °C.
For `Cc1cnc2c(c1)CCCC2Cl` (stereo not drawn) the value was 177 °C; for `COc1cc(C(=O)C(Br)CCC2CCCCC2)c(OC)cc1C` (stereo not drawn), 75 to 77 °C; for `C=CN(Cc1ccccc1)C(=O)C(F)(F)C(F)(F)C(F)(F)C(F)(F)C(F)(F)C(F)F`, 53 to 57 °C.
The compound `Cc1cc(F)ccc1-c1cc(N2CCSCC2)ncc1C(=O)NC(C)(C)C` registered a melting point of 164 to 169 °C.
The compound `O=c1[nH]c(=O)n(Cc2cccc(OCc3noc(-c4ccc(C(F)(F)F)cc4)n3)c2)o1` registered a melting point of 90 to 91 °C.
As to `CS(=O)(=O)NC(CCCCCc1ccc(Cl)cc1)C(=O)O` (stereo not drawn), the melting point lay within 73 to 75 °C.
For `Cc1nc2c(O)c(CCC(=O)c3ccccc3F)c(C(=O)N(C)C)cc2n1C` the value was 218 to 221 °C.
As to `COc1c(CC(=O)O)c2c(c3c1OC(C)(C)C3)C(c1ccccc1)=NC(C)(C)C2`, the melting point was in the range of 225 to 245 °C.
With `Cc1nscc1C(=O)NC1CC1`, the melting point was 106 to 108 °C.
